# Test results taken from patent publication US20130296432A1, “BENZOIC ACID-ENRICHED PLANT EXTRACTS AND USE THEREOF” (EPC (BEIJING) NATURAL PRODUCTS CO., LTD., priority 2012, published 2013).
# System: Aspergillus niger
# Test: Bacteria inhibiting effect, dilution-plate method (colony count)
# Format: cell-based
# Settings: 27° C., 72 h
# Description: • 1. […] Dilution-plate method The preservatives were dissolved with sterilized water and diluted to the concentrations in Table 1. 1 ml of each sample was added into a sterilized Petri dish, and then 1 ml bacterial suspension was added into each dish. The sample and the bacterial suspension were well mixed in the dish and 20 ml sterilized culture medium was added into the dish at ≦45° C., such that the final concentration of the preservatives is as described in Table 1. After solidification, the dish was incubated in a constant temperature incubator at 27° C. for 72 h, and the number of the colony was then counted.
# [1] = final concentration of the preservative 0.01 % (extract calculated as benzoic acid)
# [2] = final concentration of the preservative 0.02 % (extract calculated as benzoic acid)
# [3] = final concentration of the preservative 0.04 % (extract calculated as benzoic acid)
structure (smiles),measurement,setting,value
O=C(O)c1ccccc1 [Benzoic acid],Inhibition,[1],0%
same,colony number,[1],49 cfu/dish
same,Inhibition,[2],40%
same,colony number,[2],32 cfu/dish
same,Inhibition,[3],62%
same,colony number,[3],20 cfu/dish
C/C=C/C=C/C(=O)O [Sorbic acid],Inhibition,[1],0%
same,colony number,[1],50 cfu/dish
same,Inhibition,[2],38%
same,colony number,[2],33 cfu/dish
